# In PubChem BioAssay (NCI):
#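 Exposure lasted 48 hours, with cells grown in 96-well plates and compounds tested at five concentrations. The concentration for 50% growth inhibition is given as GI50. TGI is the concentration that stops growth completely.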
# Columns and labels:
# Assay in all cases: NCI tumour cell line growth inhibition, 48 h
# HS 578T breast = test system: HS 578T breast
# SNB-19 CNS = test system: SNB-19 CNS
# SF-539 CNS = test system: SF-539 CNS
# MOLT-4 leukemia = test system: MOLT-4 leukemia
# MDA-MB-231 breast = test system: MDA-MB-231 breast
# KM12 colon = test system: KM12 colon
# RXF 393 renal = test system: RXF 393 renal
# U251 CNS = test system: U251 CNS
# CAKI-1 renal = test system: CAKI-1 renal
# NCI-H460 lung = test system: NCI-H460 lung
# MALME-3M melanoma = test system: MALME-3M melanoma
# NCI-H226 lung = test system: NCI-H226 lung
# HOP-92 NSCLC = test system: HOP-92 NSCLC
# HCT-116 colon = test system: HCT-116 colon
# SNB-75 CNS = test system: SNB-75 CNS
# M14 melanoma = test system: M14 melanoma
# UACC-62 melanoma = test system: UACC-62 melanoma
# SK-MEL-28 melanoma = test system: SK-MEL-28 melanoma
# SR leukemia = test system: SR leukemia
# TK-10 renal = test system: TK-10 renal
# DU-145 prostate = test system: DU-145 prostate
# OVCAR-8 ovarian = test system: OVCAR-8 ovarian
# SF-295 CNS = test system: SF-295 CNS
# NCI-H23 lung = test system: NCI-H23 lung
# EKVX NSCLC = test system: EKVX NSCLC
# MCF7 breast = test system: MCF7 breast
# A498 renal = test system: A498 renal
# OVCAR-5 ovarian = test system: OVCAR-5 ovarian
# SF-268 CNS = test system: SF-268 CNS
# OVCAR-4 ovarian = test system: OVCAR-4 ovarian
# UO-31 renal = test system: UO-31 renal
# HCC-2998 colon = test system: HCC-2998 colon
# UACC-257 melanoma = test system: UACC-257 melanoma
# RPMI-8226 leukemia = test system: RPMI-8226 leukemia
# K-562 leukemia = test system: K-562 leukemia
# IGROV1 ovarian = test system: IGROV1 ovarian
# SK-MEL-5 melanoma = test system: SK-MEL-5 melanoma
# NCI-H522 lung = test system: NCI-H522 lung
# NCI/ADR-RES ovarian = test system: NCI/ADR-RES ovarian
# A549 NSCLC = test system: A549 NSCLC
# HOP-62 NSCLC = test system: HOP-62 NSCLC
# SW-620 colon = test system: SW-620 colon
# ACHN renal = test system: ACHN renal
# SK-OV-3 ovarian = test system: SK-OV-3 ovarian
# SN12C renal = test system: SN12C renal
# HCT-15 colon = test system: HCT-15 colon
# HT29 colon = test system: HT29 colon
# PC-3 prostate = test system: PC-3 prostate
# HL-60(TB) leukemia = test system: HL-60(TB) leukemia
# 786-0 renal = test system: 786-0 renal
# MDA-MB-435 = test system: MDA-MB-435
# SK-MEL-2 melanoma = test system: SK-MEL-2 melanoma
# BT-549 breast = test system: BT-549 breast
# COLO 205 colon = test system: COLO 205 colon
# CCRF-CEM leukemia = test system: CCRF-CEM leukemia
# T-47D breast = test system: T-47D breast
compound,measurement,setting,value
O=c1oc2ccc(-c3ccc(F)cc3F)cc2c(=O)n1-c1ccc(F)c(F)c1,GI50,HS 578T breast,1.57 µM
same,TGI,HS 578T breast,> 50 µM
same,GI50,SNB-19 CNS,1.61 µM
same,TGI,SNB-19 CNS,> 50 µM
same,GI50,SF-539 CNS,1.69 µM
same,TGI,SF-539 CNS,13.8 µM
same,GI50,MOLT-4 leukemia,1.48 µM
same,TGI,MOLT-4 leukemia,6.73 µM
same,GI50,MDA-MB-231 breast,0.894 µM
same,TGI,MDA-MB-231 breast,2.34 µM
same,GI50,KM12 colon,1.56 µM
same,TGI,KM12 colon,5.26 µM
same,GI50,RXF 393 renal,1.27 µM
same,TGI,RXF 393 renal,4.02 µM
same,GI50,U251 CNS,1.53 µM
same,TGI,U251 CNS,> 50 µM
same,GI50,CAKI-1 renal,0.963 µM
same,TGI,CAKI-1 renal,3.21 µM
same,GI50,NCI-H460 lung,1.32 µM
same,TGI,NCI-H460 lung,> 50 µM
same,GI50,MALME-3M melanoma,0.874 µM
same,TGI,MALME-3M melanoma,2.51 µM
same,GI50,NCI-H226 lung,1.41 µM
same,TGI,NCI-H226 lung,6.24 µM
same,GI50,HOP-92 NSCLC,0.389 µM
same,TGI,HOP-92 NSCLC,2.28 µM
same,GI50,HCT-116 colon,1.26 µM
same,TGI,HCT-116 colon,5.43 µM
same,GI50,SNB-75 CNS,0.775 µM
same,TGI,SNB-75 CNS,2.54 µM
same,GI50,M14 melanoma,1.61 µM
same,TGI,M14 melanoma,35.5 µM
same,GI50,UACC-62 melanoma,0.519 µM
same,TGI,UACC-62 melanoma,1.67 µM
same,GI50,SK-MEL-28 melanoma,1.19 µM
same,TGI,SK-MEL-28 melanoma,8.2 µM
same,GI50,SR leukemia,1.87 µM
same,TGI,SR leukemia,> 50 µM
same,GI50,TK-10 renal,1.61 µM
same,TGI,TK-10 renal,16.9 µM
same,GI50,DU-145 prostate,1.75 µM
same,TGI,DU-145 prostate,> 50 µM
same,GI50,OVCAR-8 ovarian,1.62 µM
same,TGI,OVCAR-8 ovarian,> 50 µM
same,GI50,SF-295 CNS,1.15 µM
same,TGI,SF-295 CNS,3.21 µM
same,GI50,NCI-H23 lung,0.936 µM
same,TGI,NCI-H23 lung,2.97 µM
same,GI50,EKVX NSCLC,1.46 µM
same,TGI,EKVX NSCLC,7.35 µM
same,GI50,MCF7 breast,1.22 µM
same,TGI,MCF7 breast,> 50 µM
same,GI50,A498 renal,0.374 µM
same,TGI,A498 renal,1.7 µM
same,GI50,OVCAR-5 ovarian,1.62 µM
same,TGI,OVCAR-5 ovarian,> 50 µM
same,GI50,SF-268 CNS,1.38 µM
same,TGI,SF-268 CNS,> 50 µM
same,GI50,OVCAR-4 ovarian,1.35 µM
same,TGI,OVCAR-4 ovarian,> 50 µM
same,GI50,UO-31 renal,1.1 µM
same,TGI,UO-31 renal,4.67 µM
same,GI50,HCC-2998 colon,1.7 µM
same,TGI,HCC-2998 colon,48.7 µM
same,GI50,UACC-257 melanoma,0.73 µM
same,TGI,UACC-257 melanoma,4.04 µM
same,GI50,RPMI-8226 leukemia,0.589 µM
same,TGI,RPMI-8226 leukemia,2.4 µM
same,GI50,K-562 leukemia,1.16 µM
same,TGI,K-562 leukemia,> 50 µM
same,GI50,IGROV1 ovarian,1.7 µM
same,TGI,IGROV1 ovarian,> 50 µM
same,GI50,SK-MEL-5 melanoma,0.562 µM
same,TGI,SK-MEL-5 melanoma,1.44 µM
same,GI50,NCI-H522 lung,0.666 µM
same,TGI,NCI-H522 lung,8.62 µM
same,GI50,NCI/ADR-RES ovarian,1.32 µM
same,TGI,NCI/ADR-RES ovarian,> 50 µM
same,GI50,A549 NSCLC,1.58 µM
same,TGI,A549 NSCLC,> 50 µM
same,GI50,HOP-62 NSCLC,1.41 µM
same,TGI,HOP-62 NSCLC,5.94 µM
same,GI50,SW-620 colon,1.77 µM
same,TGI,SW-620 colon,> 50 µM
same,GI50,ACHN renal,1.41 µM
same,TGI,ACHN renal,4.88 µM
same,GI50,SK-OV-3 ovarian,1.27 µM
same,TGI,SK-OV-3 ovarian,> 50 µM
same,GI50,SN12C renal,1.03 µM
same,TGI,SN12C renal,4.29 µM
same,GI50,HCT-15 colon,1.34 µM
same,TGI,HCT-15 colon,5.24 µM
same,GI50,HT29 colon,8.9 µM
same,TGI,HT29 colon,> 50 µM
same,GI50,PC-3 prostate,1.42 µM
same,TGI,PC-3 prostate,> 50 µM
same,GI50,HL-60(TB) leukemia,1.06 µM
same,TGI,HL-60(TB) leukemia,3.07 µM
same,GI50,786-0 renal,1.67 µM
same,TGI,786-0 renal,> 50 µM
same,GI50,MDA-MB-435,1.28 µM
same,TGI,MDA-MB-435,5.46 µM
same,GI50,SK-MEL-2 melanoma,0.797 µM
same,TGI,SK-MEL-2 melanoma,3.07 µM
same,GI50,BT-549 breast,1.35 µM
same,TGI,BT-549 breast,4.9 µM
same,GI50,COLO 205 colon,8.25 µM
same,TGI,COLO 205 colon,27.1 µM
same,GI50,CCRF-CEM leukemia,1.47 µM
same,TGI,CCRF-CEM leukemia,> 50 µM
same,GI50,T-47D breast,0.418 µM
same,TGI,T-47D breast,3.64 µM
